Reference: ChEMBL document CHEMBL1201862, “PubChem BioAssay data set” (2004)
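Cultured in 96-well plates, cells were exposed to test compound for 48 hours across five concentrations. At the GI50, growth is halved.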 The source made the active and inactive calls. Rule as the data show it: active = GI50 up to about 1.1 µM and inactive = higher.

Key:
Test in all cases: NCI anticancer screen, dose series, 48 h
HOP-62 = tested on: HOP-62
M14 = tested on: M14
CAKI-1 = tested on: CAKI-1
Malme-3M = tested on: Malme-3M
LXFL 529 = tested on: LXFL 529
MOLT-4 = tested on: MOLT-4
SF-268 = tested on: SF-268
LOX IMVI = tested on: LOX IMVI
M19-MEL = tested on: M19-MEL
HL-60 = tested on: HL-60
DMS-114 = tested on: DMS-114
NCI-H460 = tested on: NCI-H460
SNB-75 = tested on: SNB-75
SNB-78 = tested on: SNB-78
SF-539 = tested on: SF-539
SN12C = tested on: SN12C
UACC-62 = tested on: UACC-62
SK-MEL-2 = tested on: SK-MEL-2
SR = tested on: SR
K562 = tested on: K562
SK-OV-3 = tested on: SK-OV-3
IGROV-1 = tested on: IGROV-1
COLO 205 = tested on: COLO 205
UO-31 = tested on: UO-31
NCI-H23 = tested on: NCI-H23
HCT-116 = tested on: HCT-116
CCRF-CEM = tested on: CCRF-CEM
786-0 = tested on: 786-0
DLD-1 = tested on: DLD-1
SK-MEL-28 = tested on: SK-MEL-28
HOP-92 = tested on: HOP-92
NCI-H226 = tested on: NCI-H226
XF498 = tested on: XF498
RPMI-8226 = tested on: RPMI-8226
RXF 631 = tested on: RXF 631
NCI-H522 = tested on: NCI-H522
A498 = tested on: A498
DMS-273 = tested on: DMS-273
HCC 2998 = tested on: HCC 2998
OVCAR-4 = tested on: OVCAR-4
MDA-N = tested on: MDA-N
SW-620 = tested on: SW-620
U-251 = tested on: U-251
OVCAR-3 = tested on: OVCAR-3
TK-10 = tested on: TK-10
UACC-257 = tested on: UACC-257
HCT-15 = tested on: HCT-15
PC-3 = tested on: PC-3
BT-549 = tested on: BT-549
T47D = tested on: T47D
SK-MEL-5 = tested on: SK-MEL-5
EKVX = tested on: EKVX
MDA-MB-435 = tested on: MDA-MB-435
Hs-578T = tested on: Hs-578T
SNB-19 = tested on: SNB-19
SF-295 = tested on: SF-295
ACHN = tested on: ACHN
MDA-MB-231 = tested on: MDA-MB-231
DU-145 = tested on: DU-145
RXF 393 = tested on: RXF 393
MCF7 = tested on: MCF7
OVCAR-5 = tested on: OVCAR-5
OVCAR-8 = tested on: OVCAR-8
NCI/ADR-RES = tested on: NCI/ADR-RES
HT-29 = tested on: HT-29
KM12 = tested on: KM12
A549 = tested on: A549

For `CN1CCCN2CCN(C)CCCN(CC1)CC2`, the GI50 (HOP-62) was > 100 µM (inactive), the GI50 (M14) was > 100 µM (inactive) and the GI50 (CAKI-1) was > 100 µM (inactive). The GI50 (Malme-3M) was > 100 µM (inactive), the GI50 (LXFL 529) was > 100 µM (inactive) and the GI50 (MOLT-4) was > 100 µM (inactive). The GI50 (SF-268) was > 100 µM (inactive), the GI50 (LOX IMVI) was > 100 µM (inactive) and the GI50 (M19-MEL) was > 100 µM (inactive). The GI50 (HL-60) was > 100 µM (inactive), the GI50 (DMS-114) was > 100 µM (inactive) and the GI50 (NCI-H460) was > 100 µM (inactive). For the same compound, the GI50 (SNB-75) was > 100 µM (inactive), the GI50 (SNB-78) was > 100 µM (inactive) and the GI50 (SF-539) was > 100 µM (inactive). The GI50 (SN12C) was > 100 µM (inactive), the GI50 (UACC-62) was > 100 µM (inactive) and the GI50 (SK-MEL-2) was > 100 µM (inactive). For the same compound, the GI50 (SR) was > 100 µM (inactive), the GI50 (K562) was > 100 µM (inactive) and the GI50 (SK-OV-3) was > 100 µM (inactive). For the same compound, the GI50 (IGROV-1) was > 100 µM (inactive), the GI50 (COLO 205) was > 100 µM (inactive) and the GI50 (UO-31) was > 100 µM (inactive). For the same compound, the GI50 (NCI-H23) was > 100 µM (inactive), the GI50 (HCT-116) was > 100 µM (inactive) and the GI50 (CCRF-CEM) was > 100 µM (inactive). The GI50 (786-0) was > 100 µM (inactive), the GI50 (DLD-1) was > 100 µM (inactive) and the GI50 (SK-MEL-28) was > 100 µM (inactive). For the same compound, the GI50 (HOP-92) was > 100 µM (inactive), the GI50 (NCI-H226) was > 100 µM (inactive) and the GI50 (XF498) was > 100 µM (inactive). For the same compound, the GI50 (RPMI-8226) was > 100 µM (inactive), the GI50 (RXF 631) was > 100 µM (inactive) and the GI50 (NCI-H522) was > 100 µM (inactive). The GI50 (A498) was > 100 µM (inactive), the GI50 (DMS-273) was > 100 µM (inactive) and the GI50 (HCC 2998) was > 100 µM (inactive). The GI50 (OVCAR-4) was > 100 µM (inactive).
For `O=C1c2c(nc3ccccc3c2-c2ccccc2)CN1Nc1ccccn1`, the GI50 (MDA-N) was > 100 µM (inactive), the GI50 (HOP-62) was 72.6 µM (inactive) and the GI50 (M14) was > 100 µM (inactive). For the same compound, the GI50 (SW-620) was > 100 µM (inactive), the GI50 (U-251) was 66.7 µM (inactive) and the GI50 (CAKI-1) was 47.3 µM (inactive). The GI50 (OVCAR-3) was 75 µM (inactive), the GI50 (TK-10) was > 83 µM (inactive) and the GI50 (Malme-3M) was 78.3 µM (inactive). The GI50 (LXFL 529) was 51.9 µM (inactive), the GI50 (MOLT-4) was 71.4 µM (inactive) and the GI50 (SF-268) was 75.9 µM (inactive). The GI50 (UACC-257) was > 92 µM (inactive), the GI50 (LOX IMVI) was > 76.9 µM (inactive) and the GI50 (M19-MEL) was > 100 µM (inactive). The GI50 (HL-60) was 97.9 µM (inactive), the GI50 (HCT-15) was over 75.5 µM and the GI50 (PC-3) was > 89.7 µM (inactive). The GI50 (BT-549) was > 79.1 µM (inactive), the GI50 (DMS-114) was 27.5 µM (inactive) and the GI50 (NCI-H460) was 40.6 µM (inactive). The GI50 (T47D) was > 68.4 µM (inactive), the GI50 (SNB-75) was 34.7 µM (inactive) and the GI50 (SNB-78) was 11.5 µM (inactive). The GI50 (SF-539) was > 75.2 µM (inactive), the GI50 (SN12C) was 53.6 µM (inactive) and the GI50 (UACC-62) was > 83 µM (inactive). The GI50 (SK-MEL-2) was > 100 µM (inactive), the GI50 (SK-MEL-5) was 74.5 µM (inactive) and the GI50 (SR) was 58.1 µM (inactive). The GI50 (K562) was 83.4 µM (inactive), the GI50 (SK-OV-3) was 98.2 µM (inactive) and the GI50 (EKVX) was 69 µM (inactive). For the same compound, the GI50 (IGROV-1) was 81.8 µM (inactive), the GI50 (COLO 205) was > 100 µM (inactive) and the GI50 (UO-31) was 13.8 µM (inactive). The GI50 (NCI-H23) was 86.5 µM (inactive), the GI50 (MDA-MB-435) was > 100 µM (inactive) and the GI50 (Hs-578T) was 21.2 µM (inactive). The GI50 (HCT-116) was 79.8 µM (inactive), the GI50 (SNB-19) was > 86.5 µM (inactive) and the GI50 (CCRF-CEM) was 79.1 µM (inactive). The GI50 (SF-295) was 60.1 µM (inactive), the GI50 (ACHN) was 43.7 µM (inactive) and the GI50 (786-0) was > 74.5 µM (inactive). For the same compound, the GI50 (MDA-MB-231) was > 100 µM (inactive), the GI50 (DU-145) was 67.9 µM (inactive) and the GI50 (RXF 393) was 53 µM (inactive). For the same compound, the GI50 (MCF7) was > 70 µM (inactive), the GI50 (OVCAR-5) was > 100 µM (inactive) and the GI50 (DLD-1) was > 100 µM (inactive). The GI50 (SK-MEL-28) was > 100 µM (inactive), the GI50 (HOP-92) was 38.4 µM (inactive) and the GI50 (NCI-H226) was 61.1 µM (inactive). The GI50 (XF498) was > 100 µM (inactive), the GI50 (RPMI-8226) was 76.9 µM (inactive) and the GI50 (OVCAR-8) was 43.5 µM (inactive). The GI50 (NCI/ADR-RES) was 43 µM (inactive), the GI50 (HT-29) was > 100 µM (inactive) and the GI50 (RXF 631) was 15.8 µM (inactive). The GI50 (NCI-H522) was > 78.3 µM (inactive), the GI50 (A498) was 5.32 µM (inactive) and the GI50 (DMS-273) was > 89.9 µM (inactive). The GI50 (HCC 2998) was > 100 µM (inactive), the GI50 (KM12) was 76 µM (inactive) and the GI50 (A549) was 59.4 µM (inactive). For the same compound, the GI50 (OVCAR-4) was > 80.7 µM (inactive).
